Test [1] concerns CUTLL1 T-ALL cells expressing relapse-associated mutant NT5C2 alleles. Put plainly: MTT cell viability and chemotherapy drug response, CUTLL1 cells expressing mutant NT5C2. Particulars: for increase of IC50 for mutations versus control (RFP) or wild type (NT5C2 WT): CUTLL1 cell line, NT5C2 R367Q, D407A. In kind it is cell-based. As for the experimental part:
(§1) To formally test the role of NT5C2 mutations in chemotherapy resistance, the effects of wild type and relapse-associated mutant NT5C2 expression were analyzed in the response of CCRF-CEM T-ALL cells to 6-mercaptopurine (6-MP) and 6-thyogunanine (6-TG). Expression of NT5C2 mutations in ALL cells induces resistance to chemotherapy with 6-MP and 6-TG. Viability assays were performed in CCRF-CEM and CUTLL1 T-ALL cells expressing wild type NT5C2, relapse-associated mutant NT5C2 alleles, or a red fluorescent protein (RFP) as control, treated with increased concentrations of the nucleoside analog chemotherapeutic drugs.
(§2) CCRF-CEM and CUTLL1 cells were cultured in RPMI-1640 media supplemented with 10% fetal bovine serum, 100U/ml penicillin G and 100 ug/ml streptomycin at 37 C in a humidified atmosphere under 5% CO2. HEK293T were maintained under similar conditions in DMEM media.
(§3) The lentiviral constructs pLOC-NT5C2, pLOC-NT5C2 359, pLOC-I 367, pLOC-I 407 and the pLOC-RFP control plasmid were transfected with gag-pol and V-SVG expressing vectors into HEK293T cells using JetPEI transfection reagent (Polyplus, of Illkirch, France). Viral supernatants were collected after 48 h and used for infection of CCRF-CEM and CUTLL1 cells by spinoculation. After infection, cells were selected for 5 days in blasticidin and ficolled the day before experiments.
(§4) Cell viability was determined by measurement of the metabolic reduction of the tetrazolium salt MTT using the Cell Proliferation Kit I (Roche, of Indianapolis, Ind.) following the manufacturer instructions. Experiments were done in triplicates. Viability was analyzed after 48 or 72 hours of initiation of treatment with 6-mercaptopurine, 6-thioguanine, nelarabine and Ara-G.

For test [2], the system named is CCRF-CEM T-ALL cells expressing relapse-associated mutant NT5C2 alleles. The test is described as follows: MTT cell viability and chemotherapy drug response, CCRF-CEM cells expressing mutant NT5C2. It counts as cell-based. Particulars: for increase of IC50 for mutations versus control (RFP) or wild type (NT5C2 WT): CCRF-CEM cell line, NT5C2 R367Q, D407A; for IC50: Homo sapiens, CCRF-CEM cells expressing mutation (NT5C2 R367Q), read from graph, viability relative to vehicle treated cells, read-out: log concentration at which viability falls to 50% (converted); for resistance to therapy compared with empty vector and wild type NT5C2 controls: cells expressing NT5C2 K359Q, R367Q and D407A, increased drug concentrations. As for the experimental part:
as §1, §2, §3, §4

Test [3] relates to CUTLL1 T-ALL cells expressing RFP control or wild type NT5C2. The test is described as follows: MTT cell viability and chemotherapy drug response, CUTLL1 control cells. It counts as cell-based. Particulars: CUTLL1 cells expressing RFP control or NT5C2 WT; read from graph; read-out: log concentration at which viability falls to 50% (converted). The protocol:
as §1
CCRF-CEM and CUTLL1 cells were cultured in RPMI-1640 media supplemented with 10% fetal bovine serum, 100U/ml penicillin G and 100 ug/ml streptomycin at 37 C in a humidified atmosphere under 5% CO2. HEK293T were maintained under similar conditions in DMEM media. […]
Cell viability was determined by measurement of the metabolic reduction of the tetrazolium salt MTT using the Cell Proliferation Kit I (Roche, of Indianapolis, Ind.) following the manufacturer instructions. […] Viability was analyzed after 48 or 72 hours of initiation of treatment with 6-mercaptopurine, 6-thioguanine, nelarabine and Ara-G.

Test [4] relates to CCRF-CEM T-ALL cells expressing RFP control or wild type NT5C2. The test is described as follows: MTT cell viability and chemotherapy drug response, CCRF-CEM control cells. It counts as cell-based. The conditions noted are these: Homo sapiens; CCRF-CEM cells expressing RFP control or NT5C2 WT; read from graph; read-out: log concentration at which viability falls to 50% (converted). The protocol:
as §1, §2, §3, §4

Test [5] concerns the target T1, NT5C2 R291W (Homo sapiens, UniProt P49902, R291W).
T1 construct: His6 (N); made in house; host or cells: Rosetta 2(DE3) E. coli (described for WT, K359Q, R367Q, D407A)
The test is described as follows: 5'-nucleotidase activity as a function of ATP concentration, R291W. It counts as biochemical.

Test [6] concerns the target T2, NT5C2 WT (Homo sapiens, UniProt P49902).
T2 construct: Full length cDNA constructs encoding wild type NT5C2, NT5C2 K359Q, NT5C2 R367Q and NT5C2 D407A were cloned; His6 (N); made in house; host or cells: Rosetta 2(DE3) E. coli
Put plainly: 5'-nucleotidase activity as a function of ATP concentration, wild type. It counts as biochemical. The protocol: (§5) Biochemical nucleotidase assays measuring release of phosphate upon incubation of NT5C2 with phosphonucleodides were used, including a commercial kit that measures enzymatic activity. (See file DZ123A.php in subfolder reagents of folder products in the World Wide Web at domain diazyme in category corn.)
(§6) Full length cDNA constructs encoding wild type NT5C2, NT5C2 K359Q, NT5C2 R367Q and NT5C2 D407A were cloned with an N-terminal His6 tag in the pET28a-LIC expression vector using the In-Fusion HD PCR cloning system (Clontech, of Mountain View, Calif.), as per manufacturer's instructions. Recombinant proteins were expressed from Rosetta 2(DE3) E. coli cells by induction with 0.5 mM isopropyl-β-D-thiogalactopyranoside for 3 hours at 37° C. […] Protein expression and purity was assessed y SDS-PAGE and Coomassie staining.
(§7) 5′-Nucleotidase activity of purified recombinant wild type and mutant NT5C2 proteins was assessed using the 5′-nucleotidase (5′-NT) Enzymatic Test Kit (Diazyme, of Poway, Calif.), according to the manufacturer's instructions. […] H2O2 is quantified using a Trinder reaction. 5′-Nucleotidase activity levels are calculated using a calibrator of known 5′-NT activity as standard. Assays were performed in triplicate in an Infinite M200 Tecan (of Mannedorf, Switzerland) plate reader.

Test [7] deals with T3, NT5C2 Q523X (Homo sapiens, UniProt P49902).
T3 construct: His6 (N); made in house; host or cells: Rosetta 2(DE3) E. coli (described for WT, K359Q, R367Q, D407A)
T3 sequence (P49902 1-522 limits assumed): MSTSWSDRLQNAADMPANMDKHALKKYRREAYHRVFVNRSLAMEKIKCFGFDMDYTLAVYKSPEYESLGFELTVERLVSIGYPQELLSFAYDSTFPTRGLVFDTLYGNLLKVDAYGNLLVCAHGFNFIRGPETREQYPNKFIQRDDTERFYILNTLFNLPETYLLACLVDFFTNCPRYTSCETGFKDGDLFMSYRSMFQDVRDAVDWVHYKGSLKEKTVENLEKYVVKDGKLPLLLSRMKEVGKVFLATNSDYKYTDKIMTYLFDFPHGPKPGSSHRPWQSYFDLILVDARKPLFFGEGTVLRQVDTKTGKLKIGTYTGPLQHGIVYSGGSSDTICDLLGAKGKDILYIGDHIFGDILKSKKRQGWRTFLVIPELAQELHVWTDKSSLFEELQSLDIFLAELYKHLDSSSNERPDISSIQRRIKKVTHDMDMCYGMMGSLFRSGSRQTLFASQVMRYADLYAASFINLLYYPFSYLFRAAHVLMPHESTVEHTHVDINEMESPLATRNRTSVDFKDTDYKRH
The test is described as follows: 5'-nucleotidase activity as a function of ATP concentration, Q523X. In kind it is biochemical.

Test [8] deals with NT5C2 K359Q, R367Q, D407A, L375F, R238W. The test is described as follows: 5'-nucleotidase activity as a function of ATP concentration, remaining mutations. It counts as biochemical, human. As for the experimental part:
as §5, §6, §7

Setting [9] is: read-out: A0.5, ATP concentration to achieve an activity equal to half Vmax.

T1 sequence (P49902 whole entry R291W): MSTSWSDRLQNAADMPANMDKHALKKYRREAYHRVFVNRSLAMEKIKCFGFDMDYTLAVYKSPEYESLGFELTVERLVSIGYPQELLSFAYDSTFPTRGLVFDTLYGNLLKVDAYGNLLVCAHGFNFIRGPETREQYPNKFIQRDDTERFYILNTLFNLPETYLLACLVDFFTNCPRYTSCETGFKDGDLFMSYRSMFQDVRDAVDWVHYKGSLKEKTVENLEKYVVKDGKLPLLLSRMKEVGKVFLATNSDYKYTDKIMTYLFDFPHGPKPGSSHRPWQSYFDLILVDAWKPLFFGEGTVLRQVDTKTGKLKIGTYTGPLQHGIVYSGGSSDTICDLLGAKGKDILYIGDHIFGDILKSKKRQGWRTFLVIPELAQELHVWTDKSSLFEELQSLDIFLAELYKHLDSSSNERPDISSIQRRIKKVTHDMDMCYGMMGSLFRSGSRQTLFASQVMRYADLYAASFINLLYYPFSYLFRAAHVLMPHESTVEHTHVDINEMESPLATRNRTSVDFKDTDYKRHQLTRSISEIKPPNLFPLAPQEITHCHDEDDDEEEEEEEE

`Sc1ncnc2nc[nH]c12` [6-MP, 6-mercaptopurine]: the “increase of IC50 for mutations versus control (RFP) or wild type (NT5C2 WT)” value in test [1] is “greater than ten times as much”; in test [2] it was “about double”. The IC50 is around 10 µM in test [2], around 6.31 µM in test [3] and around 6.31 µM in test [4]. For the same molecule, the “resistance to therapy compared with empty vector and wild type NT5C2 controls” value in test [2] is “increased resistance”.
As for `Nc1ncnc2c1ncn2[C@@H]1O[C@H](COP(=O)(O)OP(=O)(O)OP(=O)(O)O)[C@@H](O)[C@H]1O` [ATP], the “5'-NT activity relative to 0 mM ATP (factor of increase)” value is “over 20” in test [5], “over 60” in test [6] (ATP concentrations over 20 mM) and “over 20” in test [7]. Further, the EC50 in test [5] (setting [9]) was around 4000 µM; in test [6] (setting [9]) it was 19500 µM; in test [7] (setting [9]), around 3000 µM; in test [8] (remaining mutations, read-out: A0.5, ATP concentration to achieve an activity equal to half Vmax), below 1000 µM. In addition, in test [8] (K359Q, R367Q, D407A, L375F, R238W), the “5'-NT activity relative to 0 mM ATP” value is “little change between reference activity and maximum activity”.
`Nc1nc2c(ncn2[C@@H]2O[C@H](CO)[C@@H](O)[C@@H]2O)c(=O)[nH]1` [AraG]: the “activity in cells expressing relapse-associated NT5C2 mutations compared to controls” value in test [2] is listed as “equally active”.
In the case of `Nc1nc2nc[nH]c2c(=S)[nH]1` [6-TG, 6-thioguanine], the “increase of IC50 for mutations versus control (RFP) or wild type (NT5C2 WT)” value was “about double” in test [1] and “greater than ten times as much” in test [2]. Also, the IC50 is around 3.16 µM in test [1] (CUTLL1 cells expressing mutation NT5C2 R367Q, read from graph, read-out: log concentration at which viability falls to 50% (converted)); around 1 µM in test [3]; around 1 µM in test [4]. Also, in test [2], the “resistance to therapy compared with empty vector and wild type NT5C2 controls” value was “increased resistance”.
`COc1nc(N)nc2c1ncn2[C@@H]1O[C@H](CO)[C@@H](O)[C@@H]1O` [nelarabine]: in test [2], the “activity in cells expressing relapse-associated NT5C2 mutations compared to controls” value is recorded as “equally active”. Moreover, the IC50 in test [2] and in test [4] was around 100 µM each time.
